Data as given in patent EP4635958A1, “PYRIMIDINE-CONTAINING POLYCYCLIC DERIVATIVE INHIBITOR, AND PREPARATION METHOD THEREFOR AND USE THEREOF” (Shanghai Hansoh Biomedical Co., Ltd., priority 2022, dated 2024).
Where two headings read alike, the source gives them in different places.

Legend:
[1] = Plasma stability test, rat plasma; settings: Rat plasma, 37°C
Source text: The purpose of this experiment was to detect the stability of the example compounds in plasma of mouse, rat, dog and human.
Liquid chromatography-mass spectrometer, centrifuge, vortexer, pipette, continuous dispenser, 96-well plate, 50% methanol aqueous solution, acetonitrile solution containing internal standard, blank matrix (plasma of rat, dog, or human), Propantheline (propantheline bromide), Mevinolin (lovastatin), and test compound.
After whole blood was collected from animals or humans, it was placed in a test tube containing an anticoagulant and centrifuged at 3500 rpm for 10 min to collect the upper pale yellow plasma.
The compound was weighed and the stock solution was formulated with DMSO and the working solution was formulated with 100 mM phosphate buffer.
2.36 mg of propantheline bromide was weighed and diluted with 1 mL of DMSO into a 10 mM stock solution; 10 µL of 10 mM stock solution was pipetted into 1 mL of 100 mM phosphate buffer to achieve a final concentration of 100 µM.
4.05 mg of lovastatin was weighed and diluted with 1 mL of DMSO into a 10 mM stock solution; 10 µL of 10 mM stock solution was pipetted into 1 mL of 100 mM phosphate buffer to achieve a final concentration of 100 µM.
• 1) In a 96-well plate, 285 µL of plasma and 15 µL of 10 µM compound (test compound) were added in sequence and incubated at 37°C. • 2) 40 µL was taken at 0, 15, 30, 60, 90, and 120 min (the sampling point can be fine-tuned) and 160 µL of acetonitrile stop solution containing internal standard was add. • 3) After centrifugation (3500 rpm, 10 min), 50 µL of supernatant was taken, and 50 µL of DDH2O added for dilution and then the obtained mixture was injected into LC-MS/MS.
• Instruments: Shimadzu LC-20 AD • Chromatographic column: Phenomenex Gemiu ® C18 (50*4.6 mm, 5 µm particle size); • mobile phase: A: Acetonitrile, B: 0.1% formic acid solution 0-8 min: 5% A→95% A, 2.0-2.1 min: 90%A→5% A; Flow rate: 0.8 mL/min; Run time: 5.0 min; Injection volume: 5 µL.
• Instrument: API4000 liquid chromatography-mass spectrometer, AB Company, USA; • the ion source was electrospray ionization source (ESI); • drying gas (N2) temperature was 500°C; • electrospray voltage was 5500V; • the detection method was positive ion detection; • the scanning method was selected reaction monitoring (MRM); • the scanning time was 0.1s.

[2] = Pharmacokinetic determination in rats (IV and PO, plasma, LCMS/MS); format: in vivo, SD rats; settings: male SD rats; for AUC(0-inf): read-out: AUCo-∞; for half-life: read-out: T1/2 (converted)
Experimental: SD rats were used as test animals to study the pharmacokinetic behavior of the example compounds in rats (plasma) after oral administration.
The example compounds of the present invention, made in house.
3 SD rats per group, male. Shanghai Jiesijie Experimental Animal Co., Ltd., animal production license number (SCXK (Shanghai) 2013-0006 N0.311620400001794).
Formulation of a drug for oral administration: 10% Captisol in 50 mM citrate buffer pH 5.0.
(§1) Formulation of 50 mM citric acid: 4.8 g of citric acid was weighed into a 1000 ml glass bottle, ultrapure water was added to 300 ml, and the mixture was magnetically stirred until completely dissolved, additional ultrapure water was then added to 500 ml to formulate 50 mM citric acid.
(§2) Formulation of a solution containing 50 mM citric acid (10% Captisol, PH = 5): 50 g of Captisol powder was weighed and added to a 1000 ml glass bottle, 300 ml of 50 mM citric acid was added, and the mixture was magnetically stirred until completely dissolved, then additional citric acid was added to 500 ml, and the PH was adjusted to 5 using 10 M NaOH.
The example compounds were weighed and dissolved in the solution and the mixture was shaken well and subjected to ultrasound treatment for 15 min to obtain a colorless clear solution with a concentration of 3 mg/mL.
(§3) Formulation of a drug for intravenous administration: 5%DMSO+10%Solutol HS15+85%PBS.
(§4) The example compounds were weighed, and 5% DMSO was added according to the total administration volume; the mixture was vortexed and sonicated for 2 min to ensure complete dissolution; then, 10% Solutol HS15 was added, and the mixture was vortexed and sonicated for 2 min to achieve complete dissolution; finally, 85% PBS was added, and the mixture was vortexed and sonicated for 5 min; the obtained mixture was filtered through a 0.22 um membrane to obtain a colorless, transparent, and clear solution with a concentration of 0.2 mg/mL.
3 SD rats per group, male; After overnight fasting, the animals were administered orally (PO) at a dose of 30 mg/kg with an administration volume of 10 mL/kg.
3 SD rats per group, male; After overnight fasting, the animals were administered intravenously (IV) at a dose of 1 mg/kg with an administration volume of 5 mL/kg.
0.2 mL of blood was collected from the jugular vein before administration and at 0.25 h, 0.5 h, 1.0 h, 2.0 h, 4.0 h, 6.0 h, 8.0 h, and 24.0 h after administration and placed in an EDTA-2K test tube, and the test tube was centrifuged at 6000 rpm for 6 min at 4°C to separate the plasma, which was stored at -20°C. the animals were fed 4 h after administration.
The final determination results obtained by applying the LCMS/MS method are shown in the table below: Table 8: Pharmacokinetic parameters of the compounds administered intravenously in rats

[3] = test system: GP2D; assay: Inhibition of proliferation of KRAS G12D mutant tumor cell line GP2D (CellTiter-Glo); settings: read-out: GP2D IC50
[4] = test system: AsPC-1; assay: Inhibition of proliferation of KRAS G12D mutant tumor cell line AsPC-1 (CellTiter-Glo); format: cell-based
Experimental: 1. Experimental objective: The inhibition activity of the example compounds on the proliferation of 5 KRAS G12D mutant cell lines SNU-1, HPAF-II, Panc0403, AsPC-1 and GP2D was determined. 2. Experimental instruments: • 2.1 Instruments: Microplate reader (BioTek Synergy H1); Pipette (Eppendorf & Rainin). • 2.2 Reagents: HPAF-II, PANC0403, AsPC-1 and GP2D were purchased from COBIOER BIOSCIENCES CO., LTD; SNU-1 was purchased from the cell bank of Chinese Academy of Sciences, Cell Titer-Glo was purchased from Promega, with a catalog number of G7573; RPMI 1640 was purchased from Gibco, with a catalog number of 22400089; DMEM was purchased from Gibco, with a catalog number of 11995065; FBS was purchased from Gibco, with a catalog number of 10091148; PBS was purchased from Gibco, with a catalog number of 10010023; trypsin was purchased from Gibco, with a catalog number of 25200056; cell culture plates were purchased from Corning Company, with a catalog number of 3610. 3. Experimental method: When SNU-1, HPAF-II, Panc0403, AsPC-1 or GP2D cells were cultured to the appropriate confluence, and the SNU-1, HPAF-II, Panc0403, AsPC-1 or GP2D cells were collected. The cells were adjusted to the appropriate cell density using complete culture medium, the cell suspension was plated onto a 96-well plate at 90 µL per well, and the plate was placed in the incubator at 37°C and 5% CO2 for adherent culture overnight. Solutions of the compound with different concentrations were formulated using DMSO and culture medium. A vehicle control was set up. The solutions of the compound were added to the 96-well plate at 10 µL per well, and the plate was placed in the incubator at 37°C and 5% CO2 for further culture for about 72 h. Then, CellTiter-Glo solution was added, and the obtained mixture was shaken and mixed evenly, incubated in the dark for 10 min, and read with a BioTek Synergy H1 microplate reader. 4. Experimental data processing method: The luminescence signal value was used to calculate the inhibition rate. Graphpad Prism software was used to fit the concentration and inhibition rate to a nonlinear regression curve, so as to obtain the IC50 value. 5. Experimental results: Table 2: Determination of the inhibition activity of the compounds on the proliferation of KRAS G12D mutant tumor cell line GP2D

[5] = Pharmacokinetic determination in mice (IV and PO, plasma, LCMS/MS); format: in vivo, Balb/c mice
Source text: • 1. Study objective: Balb/c mice were used as test animals to study the pharmacokinetic behavior of the compounds in mice (plasma) after oral administration. • 2. Test scheme • 2.1 Test drugs: The example compounds of the present invention, made in house; • 2.2 Test animals: Balb/c mice, male, purchased from Shanghai Jiesijie Experimental Animal Co., Ltd., animal production license number (SCXK (Shanghai) 2013-0006 N0.311620400001794). • 2.3 Drug formulation: Formulation of a drug for oral administration: 10% Captisol in 50 mM citrate buffer pH 5.0.
as §1, §2
The example compounds were weighed and added to a 4 mL glass bottle separately, 2.4 mL of the solution was added and the mixture was subjected to ultrasound treatment for 10 min to obtain a colorless clear solution with a concentration of 3 mg/mL.
as §3, §4
3 Balb/c mice, male; After overnight fasting, the animals were administered orally (PO) at a dose of 30 mg/kg with an administration volume of 10 mL/kg.
3 Balb/C mice, male; After overnight fasting, the animals were administered intravenously (IV) at a dose of 1 mg/kg with an administration volume of 5 mL/kg.
0.04 mL of blood was collected from the orbit before administration and at 0.25 h, 0.5 h, 1 h, 2 h, 4 h, 6 h, 8 h, and 24 h after administration and placed in an EDTA-2K test tube, and the test tube was centrifuged at 6000 rpm for 6 min at 4°C to separate the plasma, which was stored at -20°C; the animals were fed 4 h after administration.
The final determination results obtained by applying the LCMS/MS method are shown in the table below: Table 6: Pharmacokinetic parameters of the compounds administered intravenously in mice

[6] = rat, in vivo, PO, 30 mg/kg, overnight fasting, plasma
[7] = rat, in vivo, PO, 30 mg/kg, overnight fasting, plasma, read-out: Cmax
[8] = rat, in vivo, PO, 30 mg/kg, overnight fasting, plasma, read-out: Tmax
[9] = Homo sapiens, ASPC1, about 72 h
[10] = PO, 30 mg/kg, male Balb/c mice, overnight fasting, plasma
[11] = proliferation, about 72 h, CellTiter-Glo
[12] = IV, 1 mg/kg, overnight fasting, plasma
[13] = PO, 30 mg/kg, overnight fasting, plasma
[14] = Balb/c mice, intravenously (IV), 1 mg/kg, plasma

**Q.** Which results are given for CC[C@H](C)C(=O)O[C@H]1C[C@@H](C)C=C2C=C[C@H](C)[C@H](CC[C@@H]3C[C@@H](O)CC(=O)O3)[C@H]21 [Lovastatin, lovastatin, reference compound]?
**A.** Remaining rate (%) 0 min ([1]; 0 min): 100.00%; Remaining rate (%) 15 min ([1]; 15 min): 21.15%; Remaining rate (%) 30 min ([1]; 30 min): 1.77%; Remaining rate (%) 60 min ([1]; 60 min): 0.36%; Remaining rate (%) 120 min ([1]; 120 min): 0.30%

**Q.** With C#Cc1c(F)ccc2cc(O)cc(-c3nc4c5c(nc(OCC6(CN7CCCC(=C(F)F)CC7)CC6)nc5c3F)N3C[C@H]5CC[C@H](N5)[C@H]3[C@H](C)O4)c12 [Example 132] as the compound, how does the AUC(0-inf) [2, 6] read?
**A.** 2350 ng·h/mL

**Q.** What about the Cmax [2, 7] of the same compound?
**A.** 246 ng/mL

**Q.** And the Tmax [2, 8]?
**A.** 2 h

**Q.** What about the IC50 ([3]; Homo sapiens, GP2d, 72 h) of the same compound?
**A.** 0.24 nM

**Q.** What about the IC50 [4, 9] of the same compound?
**A.** 4.9 nM

**Q.** What does the source list for “4-((5S,5aS,6R,9S)-12-((1-((((R)-4-(difluoromethylene)-2-methylpiperidin-1-yl)methyl)cyclopropyl)methoxy)-1-fluoro-5-methyl-5a,6,7,8,9,10-hexahydro-5H-4-oxa-3,10a,11,13,14-pentaaza-6,9-methylnaphtho[1,8-ab]hept-2-yl)-5-ethynyl-6-fluoronaphthalen-2-ol [Example 89]”?
**A.** AUC0-∞ [5, 10]: 1513 ng·h/mL; Cmax [5, 10]: 259 ng/mL; T1/2 [5, 10]: 7.7 h; Tmax [5, 10]: 1.0 h; IC50 [3, 11]: 0.9 nM; IC50 ([4]; about 72 h): 8.9 nM

**Q.** For “4-((5S,5aS,6R,9S)-12-((1-((((R)-4-(difluoromethylene)-2-methylpiperidin-1-yl)methyl)cyclopropyl)methoxy)-1-fluoro-5-methyl-5a,6,7,8,9,10-hexahydro-5H-4-oxa-3,10a,11,13,14-pentaaza-6,9-methylnaphtho[1,8-ab]hept-2-yl)-5-ethynyl-6-fluoronaphthalen-2-ol [Example 91]”, which “AUCo-∞” value [2, 12] is on record?
**A.** 660 ng·h/mL

**Q.** What about the C0 [2, 12] of the same compound?
**A.** 995 ng/mL

**Q.** What about the CL [2, 12] of the same compound?
**A.** 25.3 mL/min/kg

**Q.** What about the T1/2 [2, 12] of the same compound?
**A.** 11.9 h

**Q.** And the F ([2]; PO 30 mg/kg vs IV 1 mg/kg)?
**A.** 9.7%

**Q.** And the “AUCo-∞” value [2, 13]?
**A.** 1925 ng·h/mL

**Q.** What about the Cmax [2, 13] of the same compound?
**A.** 251 ng/mL

**Q.** And the T1/2 [2, 13]?
**A.** 4.8 h

**Q.** And the Tmax [2, 13]?
**A.** 6.0 h

**Q.** What about the “AUCo-∞” value [5, 14] of the same compound?
**A.** 366 ng·h/mL

**Q.** And the C0 [5, 14]?
**A.** 662 ng/mL

**Q.** And the CL [5, 14]?
**A.** 45.6 mL/min/kg

**Q.** What about the T1/2 [5, 14] of the same compound?
**A.** 9.3 h

**Q.** And the F ([5]; PO 30 mg/kg vs IV 1 mg/kg, male Balb/c mice)?
**A.** 16.6%

**Q.** And the “AUC0-∞” value [5, 10]?
**A.** 1818 ng·h/mL

**Q.** What about the Cmax [5, 10] of the same compound?
**A.** 295 ng/mL

**Q.** What about the T1/2 [5, 10] of the same compound?
**A.** 5.7 h

**Q.** What about the Tmax [5, 10] of the same compound?
**A.** 2.0 h

**Q.** And the IC50 [3, 11]?
**A.** 0.28 nM

**Q.** And the IC50 ([4]; about 72 h)?
**A.** 5.8 nM

**Q.** What does the source list for C#Cc1c(F)ccc2cc(O)cc(-c3nc4c5c(nc(OCC6(CN7CCC(=C(F)F)C7)CC6)nc5c3F)N3C[C@H]5CC[C@H](N5)[C@H]3[C@H](C)O4)c12 [Example 130]?
**A.** IC50 ([3]; Homo sapiens, GP2d, 72 h): 0.33 nM; IC50 [4, 9]: 4.2 nM

**Q.** What does the source list for [2H]C([2H])(Oc1nc2c3c(nc(-c4cc(O)cc5ccc(F)c(C#C)c45)c(F)c3n1)O[C@@H](C)[C@@H]1[C@@H]3CC[C@H](CN21)N3)C1(C([2H])([2H])N2CCC(=C(F)F)C[C@H]2C)CC1 [Example 290]?
**A.** IC50 ([3]; Homo sapiens, GP2d, 72 h): 0.3 nM; IC50 [4, 9]: 6.2 nM

**Q.** With C#Cc1c(F)ccc2cc(O)cc(-c3nc4c5c(nc(OCC6(CN7CCC(=C(F)F)C[C@@H]7C)CC6)nc5c3F)N3C[C@H]5CC[C@H](N5)[C@H]3[C@H](C)O4)c12 [Example 90] as the compound, how does the IC50 ([3]; Homo sapiens, GP2d, 72 h) read?
**A.** 0.51 nM

**Q.** What about the IC50 [4, 9] of the same compound?
**A.** 8.8 nM

**Q.** With [2H]C([2H])([2H])C1Oc2nc(-c3cc(O)cc4ccc(F)c(C#C)c34)c(F)c3nc(OCC4(CN5CCC(=CF)CC5C)CC4)nc(c23)N2CC3CCC(N3)C12 (stereo not drawn) [Example 286] as the compound, how does the AUC(0-inf) [2, 6] read?
**A.** 600 ng·h/mL

**Q.** What about the Cmax [2, 7] of the same compound?
**A.** 50 ng/mL

**Q.** What about the half-life [2, 6] of the same compound?
**A.** 10.8 h

**Q.** And the Tmax [2, 8]?
**A.** 2 h

**Q.** What about the IC50 ([3]; Homo sapiens, GP2d, 72 h) of the same compound?
**A.** 0.32 nM

**Q.** What about the IC50 [4, 9] of the same compound?
**A.** 7.8 nM

**Q.** Which results are given for [2H]C([2H])(Oc1nc2c3c(nc(-c4cc(O)cc5ccc(F)c(C#C)c45)c(F)c3n1)O[C@@H](C)[C@@H]1[C@@H]3CC[C@H](CN21)N3)C1(C([2H])([2H])N2CCC(=C(F)F)CC2)CC1 [Example 289]?
**A.** AUC(0-inf) [2, 6]: 2110 ng·h/mL; Cmax [2, 7]: 280 ng/mL; half-life [2, 6]: 6.3 h; Tmax [2, 8]: 4 h; IC50 ([3]; Homo sapiens, GP2d, 72 h): 0.28 nM; IC50 [4, 9]: 5.7 nM
